This is an account of results in ChEMBL document CHEMBL4680067, “Identification of LASSBio-1945 as an inhibitor of SARS-CoV-2 main protease (MPRO) through in silico screening supported by molecular docking and a fragment-based pharmacophore model” (RSC Med Chem, 2021).

Each structure is given as a SMILES string.

Experiment [1] can be described thus: Inhibition of SARS CoV-2 main protease by rapidfire high-throughput mass spectrometry. Set-up: species or system Severe acute respiratory syndrome coronavirus 2.
In experiment [2] the test system is Severe acute respiratory syndrome coronavirus 2. In words: Inhibition of SARS CoV-2 main protease at 50 uM by rapidfire high-throughput mass spectrometry relative to control.
Experiment [3] can be described thus: Inhibition of SARS CoV-2 main protease. More on the design: species or system Severe acute respiratory syndrome coronavirus 2.
Another experiment has as its system SARS-CoV-2. The experiment can be described thus: Antiviral activity against SARS CoV-2 infected in African green monkey Vero cells assessed as inhibition of viral replication measured after 72 hrs by qRT-PCR analysis. Type of experiment: functional, organism-based. The following applies: Severe acute respiratory syndrome coronavirus 2, Vero. (In qPCR the cycle at which signal appears reflects the starting amount.)

As a reminder, the IC50 is the point on the concentration scale where inhibition reaches its midpoint. As to `O=C(Cc1cccc(Cl)c1)Nc1cccnc1`, in experiment [1] (read-out: IC50), the IC50 came to 53.7 µM. What is called inhibition is the change of the read-out against control, counted positive when it falls. On to `O=C(CNc1c(-c2ccccc2)nc2ccccn12)N/N=C/c1cccc2ccccc12`, for which, in experiment [2], the inhibition amounted to 7.53%. Turning to `O=C(Nc1ccccc1)Nc1cnc2ccc([N+](=O)[O-])cc2n1`, in experiment [2], the inhibition stood at 0.77%. On to `CCCc1cc2c(cc1S(=O)(=O)N1CCN(c3ccccc3)CC1)OCO2`, for which, in experiment [2], the inhibition was determined as 68.3%. Moreover, in experiment [1] (read-out: IC50), the IC50 came to 16 µM. As to `Cc1ccc(NC(=O)Cc2cccc(Cl)c2)cn1`, the IC50 entry in experiment [1] is on record as “Not Active”.

Regarding `Cc1ncccc1NC(=O)Cc1cccc(Cl)c1`, the IC50 entry in experiment [1] is “Not Active”.

Turning to `Cc1csc(C(=O)N/N=C/c2cccnc2)c1N`, in experiment [2], the inhibition was -6.32%. Compound `COc1ccc(/N=C2/C(=O)N(Cc3ccc4ccccc4c3)c3ccc(C(N)=O)cc32)cc1` had an IC50 in experiment [3] of 17 µM. For the compound `Cc1[nH]c2ccccc2c1/C=N/N(C)C(=O)c1ccc2c(c1)OCO2`, the inhibition in experiment [2] is -6.66%. For orientation: EC50 means the concentration at which the effect is half-maximal. `Cc1cc(C(=O)N[C@@H](C)C(=O)N[C@H](C(=O)N[C@@H](CC(C)C)C(=O)N[C@H](/C=C/C(=O)OCc2ccccc2)C[C@@H]2CCNC2=O)C(C)C)no1`: the EC50 with SARS-CoV-2 is 16.8 µM.
